Here are results for two compounds from patent US4431807A, “4-Methyl-5-(unsubstituted and substituted phenoxy)-6-methoxy-8-(aminoalkylamino)quinolines” (priority 1981, dated 1984).

Molecules are shown by their SMILES. Where two headings read alike, the source gives them in different places.

Data set [1] relates to P. cynomolgi. The data set can be described thus: Combination drug therapy including chloroquine as suppressive adjuvant, radical curative studies. It counts as in vivo, P. cynomolgi in rhesus monkeys. The settings on record: for Activity at 3.5 mg/kg (×1): primaquine with chloroquine, compound 1 without chloroquine; for Fully curative dose level: single dose, with chloroquine.

Data set [2] is described as follows: in vivo. The settings on record: guinea pig, po.
Data set [3] can be described thus: in vivo. The settings on record: mouse, po.
Data set [4] in a line: in vivo. The settings on record: rat, po, Acute Oral LD50, rats.
A short description of data set [5]: Acute oral toxicity, mice.
Data set [6] deals with Plasmodium cynomolgi. The settings on record: cited from earlier work.
Data set [7] concerns Plasmodium vivax, P. malariae and P. ovale malaria. The settings on record: cited from earlier work.
Data set [8] in a line: Blood schizonticidal (suppressive) test, Rane mouse test, P. berghei. It counts as in vivo, Plasmodium berghei KBG 173 in ICR/HA Swiss mice. The settings on record: mouse, in vivo, sc. The source says:
Blood Schizonticidal Test (Mouse), University of Miami, Rane (Suppressive)
This system is based on comparisons of responses to test compounds by Plasmodium berghei KBG 173 malaria in mice as expressed in mean survival times and the mean survival times of untreated controls. Thus, compounds noted as active produce increases in the survival times of the treated animals that are significant when compared with the survival times of untreated controls. Since an established disease is less sensitive to treatment than a disease in the early stages of development, treatment is withheld until the parasitemia is relatively high in order to insure a more reliable assay of activity and the selection of appropriate compounds for intensive preclinical studies.
Utilizing young ICR/HA Swiss mice and a standard inoculum of Plasmodium berghei KBG 173, it is possible to produce a uniform disease fatal to 100% of untreated animals within 6 to 8 days with a mean survival time of 6.2 days. Test animals weigh from 18 to 22 grams but weight variations in any given experimental or control group are confined to 2-3 grams. All animals in any given test are approximately of the same age. Animals on test are housed in metal-topped plastic cages, given a standard laboratory diet and water ad libitum.
Test animals receive an intraperitoneal injection of 0.5 ml of 1:100 dilution of heparinized heart's blood with a minimum of 90% parasitized cells (4×10^7 cells), drawn from donor mice infected one week earlier with Plasmodium berghei. The donor stran is maintained by weekly passages in separate groups of mice inoculated with a 0.5 ml of 1:500 dilution of heparinized heart's blood.
Test compounds are administered after dissolution or suspension in peanut oil. A single dose is given subcutaneously 72 hours after the mice are infected with Plasmodium berghei. At this time a 10-15 percent parasitemia has developed; the disease is well established but has not produced sufficient debility to alter the response of the host to toxic effects of the drug on test. Since treatment is withheld for three days to permit the infection to become well established and death occurs in untreated controls within 6-8 days, it is believed that this system presents a candidate compound with the maximum challenge. In order to check factors such as changes in the infectivity of Plasmodium berghei or in the susceptibility of the host or to detect technical errors, a group of infected animals treated with pyrimethamine at dose levels producing definite increases in survival time is included as a positive control in every experiment.
In each experiment test compounds are administered in graded doses. […] However, if an active drug is toxic for the host, its toxicity may become a limiting factor; continued increases in dose levels also increase the toxic effects and may result in the diminution of survival times. Deaths prior to the sixth day, when untreated controls begin to die, are regarded as non-parasitic and become the basis for toxicity evaluations. Treated animals are kept under observation for 60 days. Survivors at the end of this period of time are considered as cured.
An increase of 100% in mean survival time is considered the minimum effective response for a candidate compound. In calculating mean survival time, toxic deaths and 60 day survivors are not included.
The antimalarial activity data acquired by the two test procedures described above are listed in Tables 2 and 3 for the compounds of this invention. In Table 4, the most promising compound of the series, compound 1, is compared directly with primaquine together with some additional test data for compound 1 compared to primaquine. In all the work reported herein primaquine is used in the form of the diphosphate salt. The test data are expressed in the form of the number of cures at a given dose level. […]

The test system of data set [9] is Plasmodium berghei. The note with it: cited from earlier work.
The mark [10] stands for this setting: 0.875 mg/kg base × 1, oral, without chloroquine.
Setting [11] is: 1.75 mg/kg base × 1, oral, plus chloroquine.
The mark [12] stands for this setting: 3.5 mg/kg base × 1, oral, without chloroquine.
Setting [13] is: 14 mg/kg base × 1, oral, without chloroquine.
Where [14] appears, read: 3.5 mg/kg base × 1, oral, plus chloroquine.
The mark [15] stands for this setting: 7 mg/kg base × 1, oral, plus chloroquine.

Turning to `COc1cc(NC(C)CCCN)c2nccc(C)c2c1Oc1cccc(C(F)(F)F)c1.O=C(O)CCC(=O)O` (stereo not shown) [Compound 1, 8-(4-Amino-1-methylbutylamino)-6-methoxy-4-methyl-5-(3-trifluoromethylphenoxy)quinoline Succinate], the Relapse in data set [1] (0.4375 mg/kg base × 1, oral, plus chloroquine) is given as 4R; in data set [1] (0.4375 mg/kg base × 1, oral, without chloroquine), 4R; in [1] (setting [10]), 1R. Further, the Cure in [1] (0.875 mg/kg base × 1, oral, plus chloroquine) was 4C; in data set [1] (setting [11]), 2C; in data set [1] (setting [12]), 1C; in [1] (7 mg/kg base × 1, oral, without chloroquine) it was 2C; in data set [1] (setting [13]), 1C. Also, the Suppressive failure in [1] (setting [10]) amounted to 3SF; in [1] (1.75 mg/kg base × 1, oral, without chloroquine), 4SF; in data set [1] (setting [12]) it was 1SF; in data set [1] (setting [13]) it was 1SF. Also, the “Activity at 3.5 mg/kg (×1)” value in [1] is “equally active”. The “Fully curative dose level” value in data set [1] is on record as 0.875 mg/kg. Besides, the “Molar Primaquine Index” value in data set [1] (with chloroquine co-administration) was 19. The median lethal dose (LD50) (as a rule, the dose at which mortality reaches 50%) in data set [2] is 174 mg/kg; in data set [3] it was 236 mg/kg; in data set [4] (female) it was 577 mg/kg; in data set [4] (male) it was 259 mg/kg. In addition, in data set [5] (mice, male), the “LD50 ratio Compound 1/Primaquine” value stood at 1.59.

In the case of `COc1cc(NC(C)CCCN)c2ncccc2c1` (stereo not shown) [Primaquine Diphosphate, 8-((4-amino-1-methylbutyl)amino)-6-methoxy-quinoline, reference compound], the Radical curative activity result in data set [6] (0.316 mg/kg, prior art comparison) was “inactive”. Further, the “Radical curative activity, cures” value in data set [6] (1.0 mg/kg (× 7), Table I) is on record as 1/2. The “% cures (radical curative)” value in [6] (1.0 mg/kg) is 50%; in data set [6] (1.3 mg/kg) it was 100%. Moreover, the Relapse in data set [1] (setting [11]) stood at 2R; in data set [1] (setting [14]) it was 1R; in [1] (setting [15]), 1R. Also, the Cure came out at 2C in [1] (setting [14]); 2C in data set [1] (setting [15]); 2C in [1] (14 mg/kg base × 1, oral, plus chloroquine). For the same compound, the Suppressive failure in data set [1] (setting [14]) and in data set [1] (setting [15]) was 1SF each time. In addition, in data set [1], the “Activity at 3.5 mg/kg (×1)” value was “effective although a relapse was observed in one of the four animals”. Further, in data set [1], the “Fully curative dose level” value is 14 mg/kg. Moreover, in [7] (clinical use), the “Radical curative (tissue) activity” value was “effective in clearing the tissues of parasites”. Also, the “Suppressive activity (blood schizonticide)” value in data set [7] (clinical use) was “relatively ineffective as a blood schizonticide”. The Toxicity in man result in data set [7] (single curative dose) is listed as “precludes administration of a single curative dose”. Also, the mortality in [8] (320 mg/kg × 1, s.c., five mice, Table III, read-out: Toxic (converted)) is 40%; in data set [8] (640 mg/kg salt, s.c., Table IV A-1, read-out: Toxic deaths (converted)) it was 100%. This compound also registered an LD50 in data set [5] (mouse, in vivo, po) of 148 mg/kg. The “Δ MST” value in data set [9] (160 mg/kg, 5 mice, Table I) was 9 days. The Toxic deaths in data set [9] (640 mg/kg, 5 mice, Table I) was 5T. Also, the Suppressive activity result in data set [9] (non-toxic dose levels, prior art comparison) is “very weak activity”.
